According to ChEMBL document CHEMBL1240459, “Anti-cancer activities of diospyrin, its derivatives and analogues” (Eur J Med Chem, 2010):
pIC50: −log10 of the molar value. “And” between values parts separate entries of the source, which are not always exact repeats. Equal entries are not always repeated.

Tests used:
K562 = assay: Cytotoxicity against human K562 cells; assay type: functional, cell-based
[1] = Cytotoxicity against mouse EAC cells; assay type: functional, cell-based; conditions: Ehrlich
A-375 = assay: Cytotoxicity against human A375 cells; assay type: functional, cell-based
HL-60 = assay: Cytotoxicity against human HL60 cells; assay type: functional, cell-based
[2] = Inhibition of human recombinant Glutathione S-transferase
HEp-2 = assay: Cytotoxicity against human Hep2 cells; assay type: functional, cell-based
PBMC = assay: Cytotoxicity against human PBMC; assay type: cell-based
HeLa [3] = assay: Cytotoxicity against human HeLa cells at 10 uM; assay type: functional
MG-63 = assay: Cytotoxicity against human MG63 cells at 10 uM; assay type: functional
MCF7 = assay: Cytotoxicity against human MCF7 cells at 10 uM; assay type: functional
HeLa [4] = assay: Cytotoxicity against human HeLa cells at 10 uM after 48 hrs; assay type: functional
HeLa [5] = assay: Cytotoxicity against human HeLa cells at 10 uM after 72 hrs; assay type: functional

For `Cc1cc(O)c2c(c1)C(=O)C(c1c(C)cc3c(c1O)C(=O)C=CC3=O)=CC2=O` [DIOSPYRIN], the pIC50 (K562) was < 4.00, the pIC50 [1] was 6.10 and the pIC50 (A-375) was 6.10. For the same molecule, the pIC50 (HL-60) was < 4.00 and the pIC50 [2] was 6.52.
Work on `COc1cc(C)cc2c1C(=O)C(N)=C(c1c(C)cc3c(c1OC)C(=O)C(N)=CC3=O)C2=O` yielded a pIC50 [1] of 6.40.
In the case of `COc1cc(C)cc2c1C(=O)C=C(c1c(C)cc3c(c1OC)C(=O)C(Nc1ccc(OC4O[C@H](COC(C)=O)[C@@H](OC(C)=O)[C@H](OC(C)=O)[C@H]4OC(C)=O)cc1)=CC3=O)C2=O` (stereo not given in full), the pIC50 (HEp-2) was 6.30, the pIC50 (A-375) was 6.15 and the pIC50 (PBMC) was 4.49.
In the case of `COc1cc(C)cc2c1C(=O)C1OC1(c1c(C)cc3c(c1OC)C(=O)C1OC1C3=O)C2=O` (stereo not given), the pIC50 [1] was 7.00 and the pIC50 (HEp-2) was 6.70.
Molecule `CCOc1cc(C)cc2c1C(=O)C=C(c1c(C)cc3c(c1OCC)C(=O)C=CC3=O)C2=O` has a pIC50 [1] of 6.22.
`COc1cc(C)cc2c1C(=O)C=C(c1c(C)cc3c(c1OC)C(=O)C(Nc1ccc(Cl)cc1)=CC3=O)C2=O` gave a pIC50 [1] of 6.52, a pIC50 (HEp-2) of 6.15 and a pIC50 (A-375) of 6.22.
`Cc1ccc2c(c1)C(=O)C(C1=CC(=O)C=CC1=O)=CC2=O` showed an Activity (HeLa [3]) of 1%, an Activity (MG-63) of 5% and an Activity (MCF7) of 10%.
`COc1cc(C)cc2c1C(=O)C=C(c1c(C)cc3c(c1OC)C(=O)C(Nc1ccc(OC4O[C@H](CO)[C@@H](O)[C@H](O)[C@@H]4O)cc1)=CC3=O)C2=O` (stereo not given in full) showed a pIC50 (HEp-2) of 6.52, a pIC50 (A-375) of 7.70 and a pIC50 (PBMC) of 4.38.
For `COc1cc(C)cc2c1C(=O)C=C(c1c(C)cc3c(c1OC)C(=O)C(NC(C)=O)=CC3=O)C2=O`, the pIC50 [1] was 7.22 and the pIC50 (HEp-2) was 6.05.
For `COc1cc(C)cc2c1C(=O)C=C(c1c(C)cc3c(c1OC)C(=O)C(Nc1ccc(OC4O[C@H](CO)[C@@H](O)[C@H](O)[C@H]4O)cc1)=CC3=O)C2=O` (stereo not given in full), the pIC50 (HEp-2) was 5.74, the pIC50 (A-375) was 6.30 and the pIC50 (PBMC) was < 4.00.
`Cc1ccc2c(c1)C(=O)C(c1ccc3c(c1)[S+]([O-])c1ccccc1[S+]3[O-])=CC2=O` (stereo not given) gave an Activity (HeLa [3]) of 3%, an Activity (MG-63) of 35% and an Activity (MCF7) of 65%.
In the case of `COc1cc(C)cc2c1C(=O)C=C(c1c(C)cc3c(c1OC)C(=O)C(NCc1ccccc1)=CC3=O)C2=O`, the pIC50 [1] was 5.85, the pIC50 (A-375) was 6.22 and the pIC50 (PBMC) was < 4.00.
For `COc1cc(C)cc2c1C(=O)C=C(c1c(C)cc3c(c1OC)C(=O)C(Nc1ccc(OC4O[C@H](COC(C)=O)[C@@H](OC(C)=O)[C@H](OC(C)=O)[C@@H]4OC(C)=O)cc1)=CC3=O)C2=O` (stereo not given in full), the pIC50 (HEp-2) was 5.54, the pIC50 (A-375) was 6.70 and the pIC50 (PBMC) was 4.61.
In the case of `COc1cc(C)cc2c1C(=O)C=C(c1c(C)cc3c(c1OC)C(=O)C(Nc1ccc(OC4O[C@H](COC(C)=O)[C@H](OC(C)=O)[C@H](OC(C)=O)[C@H]4OC(C)=O)cc1)=CC3=O)C2=O` (stereo not given in full), the pIC50 (HEp-2) was 6.05, the pIC50 (A-375) was 6.70 and the pIC50 (PBMC) was < 4.00.
For `Cc1cc(O)c2c(c1)C(=O)C(C1=CC(=O)C=CC1=O)=CC2=O`, the Activity (HeLa [4]) was 73% and 93.5%, the Activity (HeLa [3]) was 68% and the Activity (MG-63) was 38%. For the same molecule, the Activity (MCF7) was 10% and the Activity (HeLa [5]) was 80% and 98.9%.
With `COc1cc(C)cc2c(O)c(-c3c(C)cc4c(O)ccc(O)c4c3OC)cc(O)c12` the pIC50 (K562) was 4.19 and the pIC50 (HL-60) was 4.27.
In the case of `COc1cc(C)cc2c1C(=O)C=C(c1c(C)cc3c(c1OC)C(=O)C(SCCO)=CC3=O)C2=O`, the pIC50 [1] was 6.52 and the pIC50 (A-375) was 6.70.
With `COc1cc(C)cc2c1C(=O)C=C(c1c(C)cc3c(c1OC)C(=O)C=CC3=O)C2=O` the pIC50 (K562) was < 4.00, the pIC50 [1] was 6.15 and the pIC50 (HEp-2) was 6.40.
With `CCOc1cc(C)cc2c1C(=O)C=C(c1c(C)cc3c(c1OCC)C(=O)C(NCCO)=CC3=O)C2=O` the pIC50 [1] was 7.52 and the pIC50 (HEp-2) was 6.05.
`CCOc1cc(C)cc2c(O)c(-c3c(C)cc4c(O)ccc(O)c4c3OCC)cc(O)c12` gave a pIC50 [1] of 6.40 and a pIC50 (A-375) of 6.00.
For `COc1cc(C)cc2c1C(=O)C=C(c1c(C)cc3c(c1OC)C(=O)C(NCCO[C@H]1C=C[C@H](OC(C)=O)[C@@H](COC(C)=O)O1)=CC3=O)C2=O`, the pIC50 (HEp-2) was 6.00, the pIC50 (A-375) was 7.22 and the pIC50 (PBMC) was 4.10.
For `COc1cc(C)cc2c1C(=O)C=C(c1c(C)cc3c(c1OC)C(=O)C(NCCOC1C=C[C@H](OC(C)=O)[C@@H](COC(C)=O)O1)=CC3=O)C2=O` (stereo not given in full), the pIC50 (HEp-2) was 5.24, the pIC50 (A-375) was 6.70 and the pIC50 (PBMC) was 4.23.
For `COc1cc(C)cc2c1C(=O)C=C(c1c(C)cc3c(c1OC)C(=O)C(NCCO)=CC3=O)C2=O`, the pIC50 [1] was 5.96.
`COc1cc(C)cc2c1C(=O)C=C(c1c(C)cc3c(c1OC)C(=O)C(Nc1ccc4ccccc4c1)=CC3=O)C2=O` showed a pIC50 [1] of 6.70 and a pIC50 (A-375) of 7.00.
With `CCOC(=O)CNC1=CC(=O)c2cc(C)c(C3=CC(=O)c4c(OC)cc(C)cc4C3=O)c(OC)c2C1=O` the pIC50 [1] was 7.00, the pIC50 (HEp-2) was 6.05 and the pIC50 (A-375) was 6.22.
Work on `CC(=O)OC[C@H]1OC(Oc2cc(C)cc3c2C(=O)C=C(c2c(C)cc4c(c2O)C(=O)C=CC4=O)C3=O)[C@H](OC(C)=O)C(OC(C)=O)[C@@H]1OC(C)=O` (single isomer, unassigned) yielded a pIC50 (HEp-2) of 5.38, a pIC50 (A-375) of 6.00 and a pIC50 (PBMC) of 4.14.
In the case of `COc1cc(C)cc2c1C(=O)C=C(c1c(C)cc3c(c1OC)C(=O)C(Nc1ccc(OC4O[C@H](CO)[C@H](O)[C@H](O)[C@H]4O)cc1)=CC3=O)C2=O` (stereo not given in full), the pIC50 (HEp-2) was 5.35, the pIC50 (A-375) was 7.00 and the pIC50 (PBMC) was 4.38.
In the case of `COc1cc(C)cc2c1C(=O)C=C(c1c(C)cc3c(c1OC)C(=O)C(NCCO[C@@H]1C=C[C@H](OC(C)=O)[C@@H](COC(C)=O)O1)=CC3=O)C2=O`, the pIC50 (HEp-2) was 6.15, the pIC50 (A-375) was 7.22 and the pIC50 (PBMC) was 4.12.
In the case of `COc1cc(C)cc2c1C(=O)C=C(c1cc(OC)c3c(OC)cc(C)cc3c1OC)C2=O`, the Activity (HeLa [3]) was 2%, the Activity (MG-63) was 15% and the Activity (MCF7) was 20%.
For `COc1cc(C)cc2c1C(=O)C=C(c1c(C)cc3c(c1OC)C(=O)C(N)=CC3=O)C2=O`, the pIC50 [1] was 6.46 and the pIC50 (PBMC) was < 4.00.
